The supplement of paper PMC11208160

Assay: recombinant barcode read abundance after kanamycin selection (control-corrected) (log10(CPM+1)); higher = more efficient recombination; sequences stand for … in AGTGCAGAGAAAATCGGCCAGTTTTCTCTGCCTGCAGTCCGCATGCCGT…AGATTTATGCAGCGGACTGCCTTTCTCCCAAAGTGATAAACCGGACAGTATCATGGACCGGTTTTCCCGGTAATCCGTATTTGCAAGGTTGGTTTCACT; site = the 11-nt target
In short: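 A vector carrying a T7-inducible recombinase and the last 73 bp of the bridge RNA received, by Gibson cloning, oligos encoding a promoter, target, barcode and the first 104 bridge RNA bases under J23119. The pooled constructs entered E. coli together with a donor plasmid by electroporation. Selection used chloramphenicol/ampicillin/kanamycin with 0.1 mM IPTG, with chloramphenicol/ampicillin LB agar as the control, each in two replicates. Recombination efficiency is the averaged, control-corrected counts-per-million of barcodes at recombinant junctions, reported as log10(CPM+1).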
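Also: IS621 recombinase and bridge RNA in Escherichia coli cells.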

Sequence	recombinant barcode read abundance (log10)
GTATCCGCTTGGGTTCTAACCTGTTGCCA (site CGGCTGCCTCC)	0.0649
GTATCCGCTTGGGTTCTAACCTGTTGCCA (site GTATCCGCTTG)	1.55
GTATGAGCTTGGGTTCTAACCTGTTGCCA (site GTATGAGCTTG)	0.906
GTATGAGCTTGGGTTCTAACCTGTTGCCA (site TTATAAGCTTG)	0.0331
GTATGAGCTTGGGTTCTAACCTGTTGCGG (site GTATGAGCTCC)	2.06
GTATGAGCTTGGGTTCTAACCTGTTGCGG (site GTATGTGCTCC)	0.255
GTATGCTCTTGGGTTCTAACCTGTTGCGT (site GTATCCTCTAT)	0.11
GTATGCTCTTGGGTTCTAACCTGTTGCGT (site GTATGCTCTAC)	1.17
GTCAACCCTTGGGTTCTAACCTGTTGCGG (site GTAAACCCTCC)	0.886
GTCAACCCTTGGGTTCTAACCTGTTGCGG (site GTCAACCCTCC)	2.33
GTCAAGACTTGGGTTCTAACCTGTTGCCG (site GTCAAGACTCG)	1.94
GTCAAGACTTGGGTTCTAACCTGTTGCCG (site GTCAAGACTTG)	0.462
GTCAAGCCTTGGGTTCTAACCTGTTGCTA (site GCCAAACCTTA)	0.345
GTCAAGCCTTGGGTTCTAACCTGTTGCTA (site GTCAAGCCTTA)	0.705
GTCACGCCTTGGGTTCTAACCTGTTGCAT (site GACACACCTAT)	0.0978
GTCACGCCTTGGGTTCTAACCTGTTGCAT (site GTCACGCCTAT)	0.588
GTCACTACTTGGGTTCTAACCTGTTGCCG (site GTCACTACTCG)	0.74
GTCACTACTTGGGTTCTAACCTGTTGCCG (site GTCCCTACTCG)	0.0387
GTCACTACTTGGGTTCTAACCTGTTGCCG (site GTCGCTACTCG)	0.0416
GTCACTACTTGGGTTCTAACCTGTTGCCG (site GTCTCTACTCG)	0.127
GTCAGCCCTTGGGTTCTAACCTGTTGCTG (site GACAGCCCTCA)	0.379
GTCAGCCCTTGGGTTCTAACCTGTTGCTG (site GTCAGCCCTCA)	0.255

Sequence	recombinant barcode read abundance (log10)
GTCATGTCTTGGGTTCTAACCTGTTGCCT (site GCCATGTCTAG)	0.781
GTCATGTCTTGGGTTCTAACCTGTTGCCT (site GTCATGTCTAG)	1.45
GTCATGTCTTGGGTTCTAACCTGTTGCTC (site AGACGACCTCC)	0.0394
GTCATGTCTTGGGTTCTAACCTGTTGCTC (site GTCATGTCTGA)	1.23
GTCCAGACTTGGGTTCTAACCTGTTGCCT (site GTACAGACTAG)	0.92
GTCCAGACTTGGGTTCTAACCTGTTGCCT (site GTCCAGACTAG)	1.97
GTCCAGACTTGGGTTCTAACCTGTTGCCT (site GTGCAGACTAG)	0.508
GTCCAGACTTGGGTTCTAACCTGTTGCCT (site GTTCAGACTAG)	0.228
GTCCAGCCTTGGGTTCTAACCTGTTGCAC (site CAAAGAGCTCA)	0.291
GTCCAGCCTTGGGTTCTAACCTGTTGCAC (site GTCCAGCCTGT)	2.18
GTCCCCTCTTGGGTTCTAACCTGTTGCCT (site GTCACCTCTAG)	0.0601
GTCCCCTCTTGGGTTCTAACCTGTTGCCT (site GTCCCCTCTAG)	1.74
GTCCCCTCTTGGGTTCTAACCTGTTGCCT (site GTCGCCTCTAG)	0.109
GTCCCCTCTTGGGTTCTAACCTGTTGCCT (site GTCTCCTCTAG)	0.0122
GTCCCTACTTGGGTTCTAACCTGTTGCCG (site GTCACTACTCG)	0.12
GTCCCTACTTGGGTTCTAACCTGTTGCCG (site GTCCCTACTCG)	1.11
GTCCCTACTTGGGTTCTAACCTGTTGCCG (site GTCGCTACTCG)	0
GTCCCTACTTGGGTTCTAACCTGTTGCCG (site GTCTCTACTCG)	0.0614
GTCCGCTCTTGGGTTCTAACCTGTTGCCT (site ATCCGCTCTAG)	1.4
GTCCGCTCTTGGGTTCTAACCTGTTGCCT (site CTCCGCTCTAG)	0.823
GTCCGCTCTTGGGTTCTAACCTGTTGCCT (site GTCCGCTCTAG)	2.37
GTCCGCTCTTGGGTTCTAACCTGTTGCCT (site TTCCGCTCTAG)	0.383

Sequence	recombinant barcode read abundance (log10)
GTCCGGTCTTGGGTTCTAACCTGTTGCTT (site GTCCGGTCTAA)	1.07
GTCCGGTCTTGGGTTCTAACCTGTTGCTT (site GTCGGGTCTAG)	0.097
GTCCGTCCTTGGGTTCTAACCTGTTGCTT (site GTCCGTCCTAA)	0.907
GTCCGTCCTTGGGTTCTAACCTGTTGCTT (site GTCCGTCCTAC)	0.0973
GTCCGTCCTTGGGTTCTAACCTGTTGCTT (site GTCCGTCCTAG)	0.249
GTCCGTCCTTGGGTTCTAACCTGTTGCTT (site GTCCGTCCTAT)	0.416
GTCCTACCTTGGGTTCTAACCTGTTGCTA (site AGAAATACTCG)	0.442
GTCCTACCTTGGGTTCTAACCTGTTGCTA (site GTCCTACCTTA)	1.63
GTCCTATCTTGGGTTCTAACCTGTTGCAC (site CGAGGCCCTAA)	0.0371
GTCCTATCTTGGGTTCTAACCTGTTGCAC (site GTCCTATCTGT)	1.98
GTCGATCCTTGGGTTCTAACCTGTTGCCT (site GACGATCCTAG)	0.69
GTCGATCCTTGGGTTCTAACCTGTTGCCT (site GCCGATCCTAG)	0.639
GTCGATCCTTGGGTTCTAACCTGTTGCCT (site GGCGATCCTAG)	0.221
GTCGATCCTTGGGTTCTAACCTGTTGCCT (site GTCGATCCTAG)	1.68
GTCGCCTCTTGGGTTCTAACCTGTTGCCT (site GTCACCTCTAG)	0.157
GTCGCCTCTTGGGTTCTAACCTGTTGCCT (site GTCCCCTCTAG)	0.491
GTCGCCTCTTGGGTTCTAACCTGTTGCCT (site GTCGCCTCTAG)	0.297
GTCGCCTCTTGGGTTCTAACCTGTTGCCT (site GTCTCCTCTAG)	0.0886
GTCGGAGCTTGGGTTCTAACCTGTTGCAG (site GTCGGAGCTCA)	0.681
GTCGGAGCTTGGGTTCTAACCTGTTGCAG (site GTCGGAGCTCC)	0.165
GTCGGAGCTTGGGTTCTAACCTGTTGCAG (site GTCGGAGCTCG)	0.104
GTCGGAGCTTGGGTTCTAACCTGTTGCAG (site GTCGGAGCTCT)	1.89

Sequence	recombinant barcode read abundance (log10)
GTCGGGTCTTGGGTTCTAACCTGTTGCCT (site GTCCGGTCTAA)	0.054
GTCGGGTCTTGGGTTCTAACCTGTTGCCT (site GTCGGGTCTAG)	1.47
GTCGGTCCTTGGGTTCTAACCTGTTGCCG (site AGTTTAACTGT)	0.0178
GTCGGTCCTTGGGTTCTAACCTGTTGCCG (site GTCGGTCCTCG)	1.04
GTCGTCCCTTGGGTTCTAACCTGTTGCCA (site GCCGTCCCTTA)	0.071
GTCGTCCCTTGGGTTCTAACCTGTTGCCA (site GTCGTCCCTTG)	0.231
GTCTATGCTTGGGTTCTAACCTGTTGCCT (site GACTATGCTAG)	0.106
GTCTATGCTTGGGTTCTAACCTGTTGCCT (site GCCTATGCTAG)	0.213
GTCTATGCTTGGGTTCTAACCTGTTGCCT (site GGCTATGCTAG)	0.185
GTCTATGCTTGGGTTCTAACCTGTTGCCT (site GTCTATGCTAG)	0.0906
GTCTCAACTTGGGTTCTAACCTGTTGCCT (site GTCTCAACTAG)	0.604
GTCTCAACTTGGGTTCTAACCTGTTGCCT (site TTCTGAACTAG)	0.0305
GTCTCATCTTGGGTTCTAACCTGTTGCAT (site AGTATCCCTCG)	0.0153
GTCTCATCTTGGGTTCTAACCTGTTGCAT (site GTCTCATCTAT)	0.362
GTCTCTACTTGGGTTCTAACCTGTTGCGG (site GTCGCTACTCC)	0
GTCTCTACTTGGGTTCTAACCTGTTGCGG (site GTCTCTACTCC)	0.00855
GTCTCTCCTTGGGTTCTAACCTGTTGCAG (site AAGGGCTCTAA)	0.0245
GTCTCTCCTTGGGTTCTAACCTGTTGCAG (site GTCTCTCCTCT)	0.0635
GTCTCTCCTTGGGTTCTAACCTGTTGCCG (site GTCTCTCCTCG)	0.0734
GTCTCTCCTTGGGTTCTAACCTGTTGCCG (site GTGTCTCCTCG)	0.0724
